# Tests used:
# MDA-MB-231 cells = assay: Mitotic entry assay (phospho-histone H3 Ser10, nocodazole trap, flow cytometry); assay type: cell-based, human
# Source text: Of these, the G2/M checkpoint involves ATM and ATR in collaboration, whereas the S/M checkpoint is mediated solely by ATR. To maintain genetic integrity, ATR can prevent premature mitotic entry in the event of incomplete DNA replication or unrepaired DNA damage. In order to evaluate the effect of benzopyran-4-one derivatives on these ATR-associated DNA damage checkpoints, we observed the effect of benzopyran-4-one derivatives on mitotic entry following hydroxyurea or cisplatin treatment.
# DNA replication was measured using a Click-it EdU assay kit, which is based on incorporation of the thymidine analogue 5-ethynyl-2′-deoxyuridine (EdU) into DNA during replication (Invitrogen). Then, 10 μM EdU was added to the cell culture medium 30 min before the cells were harvested and fixed in 4% paraformaldehyde. After cycloaddition, EdU was detected with Alexa Fluor 647 using click reaction catalyzed by Cu (II), and the DNA content was stained by CellCycle 405-blue. To assay the mitotic entry, cells were treated with the indicated drugs and trapped in 70 nM nocodazole for 16 h, and antibodies against phospho-histone H3 Ser10 and PI were used to stain the mitotic cells and DNA content, respectively. An FITC Annexin V apoptosis detection kit was used to characterize the phenotype of cell death based on PI and Annexin V double staining (BD Pharmingen, San Diego, Calif.). Fluorescence-labeled cells were subsequently analyzed by the BD LSR II flow cytometer with a suitable selection of excitation and emission wavelengths. The percentages of different fluorescent cells were analyzed using WinMDI Ver. 2.9.
# [1] = system: GFP expressing adenovirus (Ad-GFP); assay: Ad-GFP infection of HEK293A cells; assay type: cell-based; settings: for Ad-GFP infection: 0.2-2 μM
# Source text: To test the effects of anti-virus infection of benzopyran-4-one derivative compounds, a green fluorescent protein (GFP) expressing adenovirus to visualize adenovirus infection was used. To obtain the reporter virus, the GFP cDNA is amplified from pEGFP-N1 (Clontech, Accession: U55762.1) through a polymerase chain reaction with primers 5′-CACCATGGTGAGCAAGGGC-3′ [SEQ ID NO: 5] and 5′-[…]-3′ [SEQ ID NO: 6], and then cloned into pENTR™/D-TOP vector (Invitrogen). The GFP cDNA was transferred to adenovirus vector pAd/CMV/V5-DEST™ through an in vitro recombination method using LR Clonase® II after the sequence was confirmed. We selected the ampicillin- and […] clones to obtain the pAd-GFP. The pAd-GFP plasmid is then transfected into E1a and E1b expressing HEK293A cells to produce a crude GFP expression adenoviral stock (Ad-GFP). The adenovirus was amplified by infecting HEK293A cells. The adenoviral stock was titered and later used to infect the cells for the analysis.
# (§1) To observe the anti-virus effect of the benzopyran-4-one derivative compounds, Ad-GFP and Lenti-GFP at a low MOI of 0.5 were then applied to infect the HEK293A cells and HEK293T cells, respectively. In the prevention group, cells were treated by compounds of Compound I-1 at 0.2, 1, and 2 μM or Compound II-1 at 0.1, 0.5, 1 μM for 30 minutes before Ad-GFP and Lenti-GFP infection. In the treatment group, cells were treated by compounds of Compound I-1 at 0.2, 1, and 2 μM or Compound II-1 at 0.1, 0.5, and 1 μM for 2 hours after Ad-GFP and Lenti-GFP infection. After a total of 6 hours of compounds and virus treatments, cells were washed with Hank's buffered salt solution and a flash culture media was replaced.
# (§2) 24 hours after virus infection, the effect of the benzopyran-4-one derivative compounds on the antivirus infection was recorded by observing the GFP positive cells under an inverted fluorescence microscope. The mean fluorescence intensity by flow cytometry in each plate of cells was analyzed for quantification.
# [2] = system: GFP-expressing retrovirus (Lenti-GFP); assay: Lenti-GFP infection of HEK293T cells; assay type: cell-based, lentivirus
# Experimental: In addition to the test of the benzopyran-4-one derivative compounds on the DNA virus infection, they were tested on the retrovirus using a GFP-expressing retrovirus to visualize the […] infection. […]. Afterward, the lentiviral stock (Lenti-GFP) was titered and used to infect the cells for analysis.
# as §1, §2
# Ad-GFP virus replication = Ad-GFP virus replication (supernatant re-infection of HEK293A cells); assay type: cell-based, adenovirus
# Experimental: Ideally, the Ad-GFP virus is replicated within HEK293A cells. To test the effect of benzopyran-4-one derivative compounds on Ad-GFP virus replication, the same virus infection and compound treatment are performed as shown in FIG. 26. At the end of a 24-hour experiment, we collected the Ad-GFP virus from each well of Ad-GFP infected HEK293A using two freeze-thaw cycles and then collected the supernatants. An equal amount of supernatants from each well were then infected with the HEK293A cells, which were newly-prepared 1 day before infection in a 96-well plate at a density of 5×10^4 per well. Finally, the GFP cell images were obtained using the inverted fluorescence microscope and quantified by analyzing the MFI using flow cytometry for each well of cells.
# [3] = compound alone (Control group, no DNA-damaging agent)
# [4] = compound with Cisplatin (G2/M checkpoint)
# [5] = compound with Hydroxyurea (S/M checkpoint)
# [6] = post-treatment 2 hours after infection, 0.1-1 μM
# [7] = pre-treatment 30 minutes before infection, 0.1-1 μM, MOI 0.5, 24 hours
# [8] = pre-treatment, 0.2-2 μM Compound I-1 or 0.1-1 μM Compound II-1
# [9] = post-treatment 2 hours after infection, re-infection
# [10] = pre-treatment, 24 hours after re-infection
compound,measurement,setting,value
"O=C1C=CC(O)(c2cc(=O)c3c(ccc4ccccc43)o2)C=C1 [Compound II-1, 3-(1-hydroxy-4-oxo-cyclohexa-2,5-dienyl)-1H-benzo[f]chromen-1-one]",The percentage of mitotic cells,MDA-MB-231 cells; [3],12.05 ± 0.68%
same,The percentage of mitotic cells,MDA-MB-231 cells; [4],8.14 ± 0.99%
same,The percentage of mitotic cells,MDA-MB-231 cells; [5],10.49 ± 1.17%
same,MFI of GFP protein,[1]; [6],decreased
same,Number of GFP cells,[1]; [6],decreased
same,Mean fluorescence intensity (MFI) of GFP protein,[1]; [7],decreased
same,Number of GFP cells,[1]; [7],decreased
same,inhibition at 1 µM,"[1]; unidentified adenovirus, HEK293-A, read-out: Virus inhibition effect",50 to 99%
same,MFI of GFP protein,[2]; [6],significantly decreased
same,MFI of GFP protein,[2]; [8],significantly decreased
same,MFI of GFP protein,Ad-GFP virus replication; [9],significant decreased
same,Number of GFP cells,Ad-GFP virus replication; [9],significant decreased
same,MFI of GFP protein,Ad-GFP virus replication; [10],significantly decreased
same,Number of GFP cells,Ad-GFP virus replication; [10],significantly decreased
"O=C1C=CC(O)(c2cc(=O)c3c(O)cc(O)cc3o2)C=C1 [Compound I-1, Protoapigenone]",The percentage of mitotic cells,MDA-MB-231 cells; [3],23.69 ± 0.94%
same,The percentage of mitotic cells,MDA-MB-231 cells; [4],7.99 ± 0.91%
same,The percentage of mitotic cells,MDA-MB-231 cells; [5],3.40 ± 0.41%
same,Ad-GFP infection,[1]; post-treatment,did not inhibit the Ad-GFP infection
same,Ad-GFP infection,[1]; pre-treatment,did not prevent the Ad-GFP infection
same,MFI of GFP protein,"[2]; post-treatment, 2 μM",showed an inhibition effect
same,MFI of GFP protein,[2]; [8],significantly decreased
same,MFI of GFP protein,Ad-GFP virus replication; [9],significant decreased
same,Number of GFP cells,Ad-GFP virus replication; [9],significant decreased
same,MFI of GFP protein,Ad-GFP virus replication; [10],significantly decreased
same,Number of GFP cells,Ad-GFP virus replication; [10],significantly decreased

# From patent publication US11413267B2, “Methods and compositions for inhibition of ATR and FANCD2 activation” (priority 2012, dated 2022)
